Experimental data: patent US12528814B2, “Bifunctional degraders of interleukin-1 receptor-associated kinases and therapeutic use thereof” (NURIX THERAPEUTICS, INC., priority 2020, dated 2026)
Like-named read-outs stand apart in the source and are kept apart here.

Tests used:
IRAK4 [1] = biological target: T1, IRAK4 (Homo sapiens (Human), UniProt Q9NWZ3); experiment: IRAK4 Biochemical HTRF Kinase Assay; conditions: read-out: IRAK4 HTRF biochemical: IC50
Summary of the method: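 HTRF KinEASE STK S1 format measuring IRAK4 phosphorylation of biotinylated peptide; reaction solution of 5 μM STK-S1, 10 mM ATP, 10 mM MgCl2 added (stock, to 10 μl final), 90 min at ambient temperature, detection 60 min. IC50 from sixteen-point duplicate curves by non-linear regression.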
Target sequence in this assay (Q9NWZ3 whole entry, species assumed): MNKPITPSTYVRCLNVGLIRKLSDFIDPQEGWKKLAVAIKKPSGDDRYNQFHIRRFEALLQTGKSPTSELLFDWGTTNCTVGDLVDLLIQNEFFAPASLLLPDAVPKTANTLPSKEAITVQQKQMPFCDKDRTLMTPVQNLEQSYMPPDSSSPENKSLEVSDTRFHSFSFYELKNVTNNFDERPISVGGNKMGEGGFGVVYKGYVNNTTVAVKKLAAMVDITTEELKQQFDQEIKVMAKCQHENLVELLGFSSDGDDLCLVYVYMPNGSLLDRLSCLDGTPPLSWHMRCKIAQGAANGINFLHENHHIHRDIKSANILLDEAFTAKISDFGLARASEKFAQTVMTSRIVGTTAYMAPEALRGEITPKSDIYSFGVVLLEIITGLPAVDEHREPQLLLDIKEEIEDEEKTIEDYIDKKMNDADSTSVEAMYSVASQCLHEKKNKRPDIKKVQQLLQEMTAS

IRAK4 [2] = biological target: T1, IRAK4; experiment: IRAK4 Degradation HiBiT Assay; conditions: HiBiT-tagged Jurkat cells, 4 hrs; for Dmax: Jurkat; for DC50: read-out: Cellular IRAK4 HiBiT: DC50
Target sequence in this assay (Q9NWZ3 whole entry): as the sequence (Q9NWZ3 whole entry, species assumed) above

[3] = read-out: Cellular IRAK4 HiBiT: Dmax, Table 4
[4] = read-out: Cellular IRAK4 HiBiT: Dmax, Table 5, multiple runs

| SMILES | IC50 (IRAK4 [1]; Table 4) | IC50 (IRAK4 [1]; Table 5, multiple runs) | Dmax (IRAK4 [2]; [3]) | Dmax (IRAK4 [2]; [4]) | DC50 (IRAK4 [2]; Table 4) | DC50 (IRAK4 [2]; Table 5, multiple runs) | Cellular IRAK4 HiBiT: Dmax (IRAK4 [2]; Table 5, multiple runs) |
| --- | --- | --- | --- | --- | --- | --- | --- |
| CN[C@@H](C)C(=O)N[C@H](C(=O)N1C[C@@H](NC(=O)CCOCCC(=O)N2CCN(c3nnc(-c4cnc(-c5ccc6cc(C#N)cnn56)cc4NC(C)C)s3)CC2)C[C@H]1C(=O)N[C@@H]1CCCc2ccccc21)C1CCCCC1 [Example 54, (2S,4S)-4-(3-(3-(4-(5-(6-(3-cyanopyrrolo[1,2-b]pyridazin-7-yl)-4-(isopropylamino)pyridin-3-yl)-1,3,4-thiadiazol-2-yl)piperazin-1-yl)-3-oxopropoxy)propanamido)-1-((S)-2-cyclohexyl-2-((S)-2-(methylamino)propanamido)acetyl)-N—((R)-1,2,3,4-tetrahydronaphthalen-1-yl)pyrrolidine-2-carboxamide] | 0.6 nM | 0.6 nM | 48% | 48% | 816 nM | 794 nM |  |
| N#Cc1cnn2c(-c3cc(NC4CCOCC4)c(-c4nnc(C56CCC(NC(=O)CCOCCOCCNc7cccc8c7C(=O)N(C7CCC(=O)NC7=O)C8=O)(CC5)CC6)s4)cn3)ccc2c1 (centres unmarked) [Example 1, N-(4-(5-(6-(3-cyanopyrrolo[1,2-b]pyridazin-7-yl)-4-((tetrahydro-2H-pyran-4-yl)amino)pyridin-3-yl)-1,3,4-thiadiazol-2-yl)bicyclo[2.2.2]octan-1-yl)-3-(2-(2-((2-(2,6-dioxopiperidin-3-yl)-1,3-dioxoisoindolin-4-yl)amino)ethoxy)ethoxy)propanamide] | 1.8 nM | 2 nM | 65% | 60% | 23.8 nM | 22.9 nM |  |
| CNc1cc(-c2ccc3cc(C#N)cnn23)ncc1-c1nnc(C23CCC(NC(=O)[C@H]4CC[C@H](C(=O)N[C@H](C(=O)N5C[C@H](O)C[C@H]5C(=O)NCc5ccc(-c6scnc6C)cc5)C(C)(C)C)CC4)(CC2)CC3)s1 [Example 130, (1S,4r)-N1-(4-(5-(6-(3-cyanopyrrolo[1,2-b]pyridazin-7-yl)-4-(methylamino)pyridin-3-yl)-1,3,4-thiadiazol-2-yl)bicyclo[2.2.2]octan-1-yl)-N4—((S)-1-((2S,4R)-4-hydroxy-2-((4-(4-methylthiazol-5-yl)benzyl)carbamoyl)pyrrolidin-1-yl)-3,3-dimethyl-1-oxobutan-2-yl)cyclohexane-1,4-dicarboxamide] |  | 1.8 nM |  |  |  | 126 nM | 110% |
| CC(C)Nc1cc(-c2ccc3cc(C#N)cnn23)ncc1-c1nnc(N2CCN(C3CCN(C(=O)Cc4ccc5c(c4)CN(C4CCC(=O)NC4=O)C5=O)CC3)CC2)s1 (centres unmarked) [Example 75, 7-(5-(5-(4-(1-(2-(2-(2,6-dioxopiperidin-3-yl)-1-oxoisoindolin-5-yl)acetyl)piperidin-4-yl)piperazin-1-yl)-1,3,4-thiadiazol-2-yl)-4-(isopropylamino)pyridin-2-yl)pyrrolo[1,2-b]pyridazine-3-carbonitrile] |  | 0.8 nM |  | 111% |  | 8.59 nM |  |
| CNc1cc(-c2ccc3cc(C#N)cnn23)ncc1-c1nnc([C@H]2CC[C@H](NC(=O)CCCCCNc3cccc4c3C(=O)N(C3CCC(=O)NC3=O)C4=O)CC2)s1 (some centres unmarked) [Example 66, N-((1r,4r)-4-(5-(6-(3-cyanopyrrolo[1,2-b]pyridazin-7-yl)-4-(methylamino)pyridin-3-yl)-1,3,4-thiadiazol-2-yl)cyclohexyl)-6-((2-(2,6-dioxopiperidin-3-yl)-1,3-dioxoisoindolin-4-yl)amino)hexanamide] |  | 1.6 nM |  | 54% |  | 11.2 nM |  |
| CC(C)Nc1cc(-c2ccc3cc(C#N)cnn23)ncc1-c1nnc(N2CCN(C(=O)CCCCCCCNc3ccc4c(c3)C(=O)N(C3CCC(=O)NC3=O)C4=O)CC2)s1 (centres unmarked) [Example 5, 7-(5-(5-(4-(8-((2-(2,6-dioxopiperidin-3-yl)-1,3-dioxoisoindolin-5-yl)amino)octanoyl)piperazin-1-yl)-1,3,4-thiadiazol-2-yl)-4-(isopropylamino)pyridin-2-yl)pyrrolo[1,2-b]pyridazine-3-carbonitrile] | 3.8 nM | 3.9 nM | 57% | 57% | 84 nM | 71.2 nM |  |
| CC(C)Nc1cc(-c2ccc3cc(C#N)cnn23)ncc1-c1nnc(N2CCN(C[C@H]3CCN(c4ccc5c(c4)C(=O)N(C4CCC(=O)NC4=O)C5=O)C3)CC2)s1 (stereo partly drawn) [Example 19, 77-(5-(5-(4-(((3R)-1-(2-(2,6-dioxopiperidin-3-yl)-1,3-dioxoisoindolin-5-yl)pyrrolidin-3-yl)methyl)piperazin-1-yl)-1,3,4-thiadiazol-2-yl)-4-(isopropylamino)pyridin-2-yl)pyrrolo[1,2-b]pyridazine-3-carbonitrile] | 2.2 nM | 2.2 nM | 79% | 67% | 90.1 nM | 90.6 nM |  |

The next lines start with results.

| IC50 (IRAK4 [1]; Table 4) | IC50 (IRAK4 [1]; Table 5, multiple runs) | Dmax (IRAK4 [2]; [3]) | Dmax (IRAK4 [2]; [4]) | DC50 (IRAK4 [2]; Table 4) | DC50 (IRAK4 [2]; Table 5, multiple runs) | SMILES | Cellular IRAK4 HiBiT: Dmax (IRAK4 [2]; Table 5, multiple runs) |
| --- | --- | --- | --- | --- | --- | --- | --- |
|  | 1.5 nM |  | 80% |  | 508 nM | CNc1cc(-c2ccc3cc(C#N)cnn23)ncc1-c1nnc(C2CCC(NC(=O)[C@H]3C[C@H]3C(=O)N[C@H](C(=O)N3C[C@H](O)C[C@H]3C(=O)N[C@@H](C)c3ccc(-c4scnc4C)cc3)C(C)(C)C)CC2)s1 (mixture of isomers) [Example 147, (1RS,2SR)—N1-((1r,4R)-4-(5-(6-(3-cyanopyrrolo[1,2-b]pyridazin-7-yl)-4-(methylamino)pyridin-3-yl)-1,3,4-thiadiazol-2-yl)cyclohexyl)-N2—((S)-1-((2S,4R)-4-hydroxy-2-(((S)-1-(4-(4-methylthiazol-5-yl)phenyl)ethyl)carbamoyl)pyrrolidin-1-yl)-3,3-dimethyl-1-oxobutan-2-yl)cyclopropane-1,2-dicarboxamide] |  |
|  | 1.5 nM |  | 89% |  | 126 nM | CNc1cc(-c2ccc3cc(C#N)cnn23)ncc1-c1nnc(N2CCC(C3CCN(C(=O)CN4CCN(c5ccc6c(c5)C(=O)N(C5CCC(=O)NC5=O)C6=O)CC4)CC3)CC2)s1 (centres unmarked) [Example 185, 7-(5-(5-(1′-(2-(4-(2-(2,6-dioxopiperidin-3-yl)-1,3-dioxoisoindolin-5-yl)piperazin-1-yl)acetyl)-[4,4′-bipiperidin]-1-yl)-1,3,4-thiadiazol-2-yl)-4-(methylamino)pyridin-2-yl)pyrrolo[1,2-b]pyridazine-3-carbonitrile] |  |
|  | 0.7 nM |  | 113% |  | 42.8 nM | CNc1cc(-c2ccc3cc(C#N)cnn23)ncc1-c1nnc(N2CC3(CCN(C(=O)C[C@H](NC(=O)[C@@H]4C[C@@H](O)CN4C(=O)[C@@H](NC(=O)C4(F)CC4)C(C)(C)C)c4ccc(-c5scnc5C)cc4)CC3)C2)s1 [Example 178] |  |
|  | 0.3 nM |  | 96% |  | 17.1 nM | CNc1cc(-c2ccc3cc(C#N)cnn23)ncc1-c1nnc(N2CCC(N3CCN(C(=O)c4ccc5c(c4)C(=O)N(C4CCC(=O)NC4=O)C5=O)CC3)CC2)s1 (centres unmarked) [Example 186, 7-(5-(5-(4-(4-(2-(2,6-dioxopiperidin-3-yl)-1,3-dioxoisoindoline-5-carbonyl)piperazin-1-yl)piperidin-1-yl)-1,3,4-thiadiazol-2-yl)-4-(methylamino)pyridin-2-yl)pyrrolo[1,2-b]pyridazine-3-carbonitrile] |  |
|  | 0.5 nM |  | 108% |  | 16 nM | CNc1cc(-c2ccc3cc(C#N)cnn23)ncc1-c1nnc([C@H]2CC[C@H](N(C)C(=O)CCN3CCN(c4ccc5c(c4)C(=O)N(C4CCC(=O)NC4=O)C5=O)CC3)CC2)s1 (some centres unmarked) [Example 188, N-((1r,4r)-4-(5-(6-(3-cyanopyrrolo[1,2-b]pyridazin-7-yl)-4-(methylamino)pyridin-3-yl)-1,3,4-thiadiazol-2-yl)cyclohexyl)-3-(4-(2-(2,6-dioxopiperidin-3-yl)-1,3-dioxoisoindolin-5-yl)piperazin-1-yl)-N-methylpropanamide] |  |
|  | 1.4 nM |  | 64% |  | 21.6 nM | CNc1cc(-c2ccc3cc(C#N)cnn23)ncc1-c1nnc(C23CCC(NC(=O)[C@H]4C[C@@H](OCCNc5cccc6c5C(=O)N(C5CCC(=O)NC5=O)C6=O)C4)(CC2)CC3)s1 (some centres unmarked) [Example 109, (1s,3s)-N-(4-(5-(6-(3-cyanopyrrolo[1,2-b]pyridazin-7-yl)-4-(methylamino)pyridin-3-yl)-1,3,4-thiadiazol-2-yl)bicyclo[2.2.2]octan-1-yl)-3-(2-((2-(2,6-dioxopiperidin-3-yl)-1,3-dioxoisoindolin-4-yl)amino)ethoxy)cyclobutane-1-carboxamide] |  |
|  | 10.2 nM |  | 57% |  | 171 nM | CNc1cc(-c2ccc3cc(C#N)cnn23)ncc1-c1nnc([C@H]2CC[C@@H](NC(=O)CCCCCCCNc3ccc4c(c3)C(=O)N(C3CCC(=O)NC3=O)C4=O)CC2)s1 (some centres unmarked) [Example 112, N-((1s,4s)-4-(5-(6-(3-cyanopyrrolo[1,2-b]pyridazin-7-yl)-4-(methylamino)pyridin-3-yl)-1,3,4-thiadiazol-2-yl)cyclohexyl)-8-((2-(2,6-dioxopiperidin-3-yl)-1,3-dioxoisoindolin-5-yl)amino)octanamide] |  |
|  | 1.6 nM |  |  |  | > 970 nM | CNc1cc(-c2ccc3cc(C#N)cnn23)ncc1-c1nnc(N2CCN(C[C@H]3CCN(c4ccc5c(c4)n(C)c(=O)n5C4CCC(=O)NC4=O)C3)CC2)s1 (stereo partly drawn) [Example 91, 7-(5-(5-(4-(((3R)-1-(1-(2,6-dioxopiperidin-3-yl)-3-methyl-2-oxo-2,3-dihydro-1H-benzo[d]imidazol-5-yl)pyrrolidin-3-yl)methyl)piperazin-1-yl)-1,3,4-thiadiazol-2-yl)-4-(methylamino)pyridin-2-yl)pyrrolo[1,2-b]pyridazine-3-carbonitrile] |  |
